Format in all cases: functional
For assay [1], the target named is Ribosomal protein S6 kinase alpha-3 (Homo sapiens, UniProt P51812).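 Also: measured within a kinome-wide profiling panel.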
The target of assay [2] is Phosphorylase b kinase gamma catalytic chain, liver/testis isoform (Homo sapiens, UniProt P15735).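 Also: PHKG2 measured as one member of a kinome-wide kinase panel.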
In assay [3] the target is Serine/threonine-protein kinase PLK3 (Homo sapiens, UniProt Q9H4B4).
In assay [4] the target is ALK tyrosine kinase receptor (Homo sapiens, UniProt Q9UM73).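 Also: ALK tested as one member of a kinase panel screen.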
Assay [5] has as its target Aurora kinase A (Homo sapiens, UniProt O14965).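 Also: value from the Navigating the Kinome kinase panel profiling, panel entry STK6.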
In assay [6] the target is T1, Tyrosine-protein kinase JAK3 (Homo sapiens, UniProt P52333).
T1 sequence (P52333 whole entry): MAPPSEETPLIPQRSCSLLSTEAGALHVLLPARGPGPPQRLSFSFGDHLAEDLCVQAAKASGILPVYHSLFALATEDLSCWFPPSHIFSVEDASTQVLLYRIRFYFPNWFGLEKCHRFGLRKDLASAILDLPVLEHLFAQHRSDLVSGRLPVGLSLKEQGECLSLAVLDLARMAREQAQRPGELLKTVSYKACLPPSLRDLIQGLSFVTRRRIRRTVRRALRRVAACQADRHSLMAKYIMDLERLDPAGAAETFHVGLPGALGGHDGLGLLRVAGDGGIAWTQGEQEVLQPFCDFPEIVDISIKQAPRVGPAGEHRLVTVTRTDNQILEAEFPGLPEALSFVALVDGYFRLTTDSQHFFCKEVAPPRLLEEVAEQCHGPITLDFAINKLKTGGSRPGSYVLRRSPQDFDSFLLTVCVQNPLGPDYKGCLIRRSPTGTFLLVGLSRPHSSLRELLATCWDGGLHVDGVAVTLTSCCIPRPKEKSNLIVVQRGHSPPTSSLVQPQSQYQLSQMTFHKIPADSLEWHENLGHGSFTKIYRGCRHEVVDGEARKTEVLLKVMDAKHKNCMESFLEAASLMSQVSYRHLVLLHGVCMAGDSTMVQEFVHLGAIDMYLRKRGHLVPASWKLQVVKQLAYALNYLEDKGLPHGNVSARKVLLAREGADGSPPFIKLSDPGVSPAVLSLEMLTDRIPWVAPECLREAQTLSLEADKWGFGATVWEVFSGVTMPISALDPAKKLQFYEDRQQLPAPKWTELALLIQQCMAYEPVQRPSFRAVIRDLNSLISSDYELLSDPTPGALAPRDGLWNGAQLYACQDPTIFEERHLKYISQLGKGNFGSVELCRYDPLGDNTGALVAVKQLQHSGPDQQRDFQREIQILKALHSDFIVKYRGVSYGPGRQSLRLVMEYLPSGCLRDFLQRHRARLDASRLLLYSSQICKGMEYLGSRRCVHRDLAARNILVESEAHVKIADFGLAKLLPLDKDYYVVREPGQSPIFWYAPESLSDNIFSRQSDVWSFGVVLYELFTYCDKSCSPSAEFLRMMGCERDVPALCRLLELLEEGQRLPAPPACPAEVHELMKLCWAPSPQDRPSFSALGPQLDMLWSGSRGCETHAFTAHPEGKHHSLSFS

The target of assay [7] is Casein kinase I isoform gamma-1 (Homo sapiens, UniProt Q9HCP0).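 Also: measured as the CSNK1G1 member of a kinome profiling panel.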
Casein kinase I isoform gamma-1, sequence (Q9HCP0 whole entry, canonical isoform): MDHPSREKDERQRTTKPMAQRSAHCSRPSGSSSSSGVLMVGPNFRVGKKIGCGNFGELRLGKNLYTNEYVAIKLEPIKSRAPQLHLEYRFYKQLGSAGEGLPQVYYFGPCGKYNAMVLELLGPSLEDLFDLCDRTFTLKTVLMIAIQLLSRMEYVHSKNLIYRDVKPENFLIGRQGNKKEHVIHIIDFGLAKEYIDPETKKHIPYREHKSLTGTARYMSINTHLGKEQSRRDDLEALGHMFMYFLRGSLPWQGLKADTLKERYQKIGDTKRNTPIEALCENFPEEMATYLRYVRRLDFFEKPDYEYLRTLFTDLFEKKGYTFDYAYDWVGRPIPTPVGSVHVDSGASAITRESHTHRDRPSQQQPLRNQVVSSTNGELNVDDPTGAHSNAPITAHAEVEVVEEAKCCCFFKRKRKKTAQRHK
The target in assay [8] is Serine/threonine-protein kinase N2 (Homo sapiens, UniProt Q16513).
Serine/threonine-protein kinase N2, sequence (Q16513 whole entry): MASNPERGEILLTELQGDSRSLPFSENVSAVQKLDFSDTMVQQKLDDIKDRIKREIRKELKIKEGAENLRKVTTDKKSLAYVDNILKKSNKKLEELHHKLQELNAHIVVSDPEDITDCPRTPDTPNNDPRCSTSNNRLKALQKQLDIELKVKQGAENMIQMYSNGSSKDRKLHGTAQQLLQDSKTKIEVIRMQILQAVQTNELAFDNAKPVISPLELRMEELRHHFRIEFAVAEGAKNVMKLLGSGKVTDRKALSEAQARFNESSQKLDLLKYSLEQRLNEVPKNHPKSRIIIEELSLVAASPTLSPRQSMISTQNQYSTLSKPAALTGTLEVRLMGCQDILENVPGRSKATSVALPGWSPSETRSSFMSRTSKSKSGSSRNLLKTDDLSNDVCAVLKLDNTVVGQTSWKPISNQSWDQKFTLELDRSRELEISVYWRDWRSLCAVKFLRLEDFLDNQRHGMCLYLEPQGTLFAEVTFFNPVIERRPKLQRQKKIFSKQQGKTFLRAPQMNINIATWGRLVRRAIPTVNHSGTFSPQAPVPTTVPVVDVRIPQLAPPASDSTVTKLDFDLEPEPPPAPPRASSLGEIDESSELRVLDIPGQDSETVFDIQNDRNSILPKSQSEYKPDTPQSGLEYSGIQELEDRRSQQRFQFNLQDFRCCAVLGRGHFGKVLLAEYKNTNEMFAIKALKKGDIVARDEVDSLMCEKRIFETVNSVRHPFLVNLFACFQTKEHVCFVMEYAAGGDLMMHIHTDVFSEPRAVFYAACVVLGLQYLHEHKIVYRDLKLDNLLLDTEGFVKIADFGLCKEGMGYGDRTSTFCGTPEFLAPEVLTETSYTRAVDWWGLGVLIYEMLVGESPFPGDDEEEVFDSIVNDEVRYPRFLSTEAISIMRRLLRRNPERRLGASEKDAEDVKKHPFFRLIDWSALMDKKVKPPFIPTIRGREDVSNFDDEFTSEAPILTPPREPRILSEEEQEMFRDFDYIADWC
Assay [9] concerns the target MAP kinase-activated protein kinase 3 (Homo sapiens, UniProt Q16644).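 Also: value comes from a kinome-wide profiling panel in which MAPKAPK3 is one of the panel members.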
The target of assay [10] is Tyrosine-protein kinase ABL1 (Homo sapiens, UniProt P00519).
Assay [11] has as its target MAP kinase-interacting serine/threonine-protein kinase 2 (Homo sapiens, UniProt Q9HBH9).
The target of assay [12] is Misshapen-like kinase 1 (Homo sapiens, UniProt Q8N4C8).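 Also: kinome panel screen with MINK as the panel member.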
Misshapen-like kinase 1, sequence (Q8N4C8 whole entry): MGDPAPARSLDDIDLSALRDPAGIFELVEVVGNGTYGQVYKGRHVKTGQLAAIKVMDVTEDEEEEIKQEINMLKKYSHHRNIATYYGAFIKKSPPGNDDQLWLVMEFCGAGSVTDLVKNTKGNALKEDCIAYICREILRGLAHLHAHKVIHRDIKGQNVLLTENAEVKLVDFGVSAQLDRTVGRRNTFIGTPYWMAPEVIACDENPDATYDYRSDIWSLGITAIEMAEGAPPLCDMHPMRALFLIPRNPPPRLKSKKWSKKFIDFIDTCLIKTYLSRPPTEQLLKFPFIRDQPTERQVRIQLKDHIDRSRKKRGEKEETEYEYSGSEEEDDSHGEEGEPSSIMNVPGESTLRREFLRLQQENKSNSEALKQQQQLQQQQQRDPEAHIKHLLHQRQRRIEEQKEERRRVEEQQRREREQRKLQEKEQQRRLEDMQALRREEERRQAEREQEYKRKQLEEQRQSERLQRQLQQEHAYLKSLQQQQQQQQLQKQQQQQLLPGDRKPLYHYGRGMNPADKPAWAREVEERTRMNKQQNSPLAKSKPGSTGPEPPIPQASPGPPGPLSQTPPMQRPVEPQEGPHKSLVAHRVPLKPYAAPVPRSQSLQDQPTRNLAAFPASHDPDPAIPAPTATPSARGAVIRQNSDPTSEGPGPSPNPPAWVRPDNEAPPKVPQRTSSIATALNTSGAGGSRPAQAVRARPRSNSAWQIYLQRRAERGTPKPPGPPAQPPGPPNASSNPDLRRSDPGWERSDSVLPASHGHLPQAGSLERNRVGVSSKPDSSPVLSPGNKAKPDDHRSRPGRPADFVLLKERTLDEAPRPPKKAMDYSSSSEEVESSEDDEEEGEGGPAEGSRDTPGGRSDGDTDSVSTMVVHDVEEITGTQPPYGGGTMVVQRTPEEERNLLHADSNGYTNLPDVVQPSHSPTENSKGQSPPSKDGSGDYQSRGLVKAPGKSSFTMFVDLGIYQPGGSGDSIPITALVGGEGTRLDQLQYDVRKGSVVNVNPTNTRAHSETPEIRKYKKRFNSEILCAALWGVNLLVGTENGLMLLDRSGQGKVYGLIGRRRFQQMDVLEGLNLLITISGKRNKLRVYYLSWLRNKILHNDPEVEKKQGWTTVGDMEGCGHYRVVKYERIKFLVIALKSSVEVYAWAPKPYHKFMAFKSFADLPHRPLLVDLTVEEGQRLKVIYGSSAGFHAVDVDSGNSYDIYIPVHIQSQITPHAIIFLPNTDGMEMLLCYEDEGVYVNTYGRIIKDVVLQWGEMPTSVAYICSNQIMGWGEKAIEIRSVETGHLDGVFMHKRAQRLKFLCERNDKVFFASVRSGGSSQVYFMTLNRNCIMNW
Assay [13] deals with Protein-tyrosine kinase 6 (Homo sapiens, UniProt Q13882).
Assay [14] addresses Tyrosine-protein kinase Fer (Homo sapiens, UniProt P16591).
Assay [15] addresses Serine/threonine-protein kinase pim-2 (Homo sapiens, UniProt Q9P1W9).
In assay [16] the target is Serine/threonine-protein kinase Nek2 (Homo sapiens, UniProt P51955).
The target in assay [17] is Fibroblast growth factor receptor 3 (Homo sapiens, UniProt P22607).
The target in assay [18] is BDNF/NT-3 growth factors receptor (Homo sapiens, UniProt Q16620).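 Also: NTRK2 measured as one member of a broad kinome-wide kinase profiling panel.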
Assay [19] addresses T2, Serine/threonine-protein kinase BRSK1 (Homo sapiens, UniProt Q8TDC3).
T2 sequence (Q8TDC3 whole entry): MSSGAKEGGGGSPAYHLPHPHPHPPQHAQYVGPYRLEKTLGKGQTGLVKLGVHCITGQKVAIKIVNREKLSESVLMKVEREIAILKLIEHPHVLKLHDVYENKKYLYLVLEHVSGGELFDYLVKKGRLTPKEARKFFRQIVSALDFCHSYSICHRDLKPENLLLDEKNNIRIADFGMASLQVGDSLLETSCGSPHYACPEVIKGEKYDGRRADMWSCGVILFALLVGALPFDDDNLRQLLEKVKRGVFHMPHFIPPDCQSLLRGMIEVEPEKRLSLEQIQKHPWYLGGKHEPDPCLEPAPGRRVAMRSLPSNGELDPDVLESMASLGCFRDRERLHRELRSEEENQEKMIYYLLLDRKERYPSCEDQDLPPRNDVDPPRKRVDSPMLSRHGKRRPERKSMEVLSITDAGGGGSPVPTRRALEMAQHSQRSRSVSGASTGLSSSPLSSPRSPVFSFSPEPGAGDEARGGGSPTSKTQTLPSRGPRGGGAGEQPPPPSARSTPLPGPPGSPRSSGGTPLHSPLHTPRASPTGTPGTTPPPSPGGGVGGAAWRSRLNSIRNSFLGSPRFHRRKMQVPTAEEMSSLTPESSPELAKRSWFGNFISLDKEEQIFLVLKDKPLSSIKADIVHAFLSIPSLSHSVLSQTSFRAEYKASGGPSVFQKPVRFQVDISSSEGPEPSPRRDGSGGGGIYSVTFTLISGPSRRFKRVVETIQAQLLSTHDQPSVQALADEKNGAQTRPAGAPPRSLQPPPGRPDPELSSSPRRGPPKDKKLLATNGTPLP

Each structure is given as a SMILES string. Active and inactive are the calls of the source.

MAP kinase-interacting serine/threonine-protein kinase 2, sequence (Q9HBH9 whole entry): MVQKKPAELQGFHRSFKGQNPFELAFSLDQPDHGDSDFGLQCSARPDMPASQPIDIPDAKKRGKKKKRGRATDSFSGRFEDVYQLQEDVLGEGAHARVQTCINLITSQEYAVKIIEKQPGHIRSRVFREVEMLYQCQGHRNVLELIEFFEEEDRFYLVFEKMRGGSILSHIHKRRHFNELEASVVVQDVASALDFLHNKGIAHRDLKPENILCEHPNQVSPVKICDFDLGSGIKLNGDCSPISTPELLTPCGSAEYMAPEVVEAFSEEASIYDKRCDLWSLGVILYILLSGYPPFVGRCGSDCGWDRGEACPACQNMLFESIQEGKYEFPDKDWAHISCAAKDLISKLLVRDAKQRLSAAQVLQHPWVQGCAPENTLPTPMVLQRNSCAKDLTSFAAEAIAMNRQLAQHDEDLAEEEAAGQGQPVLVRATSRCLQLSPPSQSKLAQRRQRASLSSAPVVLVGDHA
Ribosomal protein S6 kinase alpha-3, sequence (P51812 whole entry, canonical isoform): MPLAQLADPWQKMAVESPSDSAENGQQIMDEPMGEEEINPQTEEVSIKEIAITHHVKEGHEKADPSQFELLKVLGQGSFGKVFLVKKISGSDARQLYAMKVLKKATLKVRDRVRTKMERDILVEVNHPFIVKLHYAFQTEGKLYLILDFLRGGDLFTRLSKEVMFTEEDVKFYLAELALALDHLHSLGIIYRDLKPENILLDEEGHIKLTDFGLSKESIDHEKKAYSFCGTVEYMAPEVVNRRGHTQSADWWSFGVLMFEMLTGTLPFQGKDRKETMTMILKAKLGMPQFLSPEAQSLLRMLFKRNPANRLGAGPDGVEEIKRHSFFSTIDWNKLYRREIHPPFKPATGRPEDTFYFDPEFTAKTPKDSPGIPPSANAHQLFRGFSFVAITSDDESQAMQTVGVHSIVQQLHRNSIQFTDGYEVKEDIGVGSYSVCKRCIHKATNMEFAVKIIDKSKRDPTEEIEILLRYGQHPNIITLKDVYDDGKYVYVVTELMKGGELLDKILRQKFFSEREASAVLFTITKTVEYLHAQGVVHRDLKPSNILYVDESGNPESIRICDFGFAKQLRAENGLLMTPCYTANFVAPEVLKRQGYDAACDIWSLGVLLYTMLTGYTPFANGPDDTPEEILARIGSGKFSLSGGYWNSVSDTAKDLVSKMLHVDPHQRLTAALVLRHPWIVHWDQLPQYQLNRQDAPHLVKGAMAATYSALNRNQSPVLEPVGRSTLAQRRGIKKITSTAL
Phosphorylase b kinase gamma catalytic chain, liver/testis isoform, sequence (P15735 whole entry, canonical isoform): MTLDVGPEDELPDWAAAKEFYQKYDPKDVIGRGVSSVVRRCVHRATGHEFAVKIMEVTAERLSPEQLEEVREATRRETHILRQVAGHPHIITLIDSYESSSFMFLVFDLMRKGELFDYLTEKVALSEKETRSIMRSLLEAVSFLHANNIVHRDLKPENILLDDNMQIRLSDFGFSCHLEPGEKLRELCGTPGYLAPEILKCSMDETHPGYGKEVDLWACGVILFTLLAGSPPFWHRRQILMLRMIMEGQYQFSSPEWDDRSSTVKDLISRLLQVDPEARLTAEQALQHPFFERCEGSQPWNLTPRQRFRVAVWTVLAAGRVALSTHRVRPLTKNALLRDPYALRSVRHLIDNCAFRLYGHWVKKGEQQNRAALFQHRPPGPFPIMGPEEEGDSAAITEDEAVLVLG
Serine/threonine-protein kinase pim-2, sequence (Q9P1W9 whole entry): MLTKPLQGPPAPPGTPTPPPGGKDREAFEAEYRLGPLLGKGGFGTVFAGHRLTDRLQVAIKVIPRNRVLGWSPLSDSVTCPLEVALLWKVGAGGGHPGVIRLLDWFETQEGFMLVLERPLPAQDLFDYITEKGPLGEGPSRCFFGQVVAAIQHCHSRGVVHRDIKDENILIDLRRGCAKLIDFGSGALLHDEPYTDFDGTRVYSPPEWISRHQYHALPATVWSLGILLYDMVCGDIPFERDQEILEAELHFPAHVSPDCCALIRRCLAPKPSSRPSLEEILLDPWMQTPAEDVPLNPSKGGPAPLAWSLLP
MAP kinase-activated protein kinase 3, sequence (Q16644 whole entry): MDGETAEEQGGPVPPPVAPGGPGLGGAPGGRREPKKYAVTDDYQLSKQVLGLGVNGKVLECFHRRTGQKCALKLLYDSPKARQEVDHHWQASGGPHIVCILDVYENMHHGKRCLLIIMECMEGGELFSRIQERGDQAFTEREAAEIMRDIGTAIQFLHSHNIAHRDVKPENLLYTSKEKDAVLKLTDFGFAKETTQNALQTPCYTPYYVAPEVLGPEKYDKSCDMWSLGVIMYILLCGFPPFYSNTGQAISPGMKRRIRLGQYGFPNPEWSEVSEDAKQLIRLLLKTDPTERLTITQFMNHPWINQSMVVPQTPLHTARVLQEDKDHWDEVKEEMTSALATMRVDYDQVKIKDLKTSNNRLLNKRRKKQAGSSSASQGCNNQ

Broadly, the Ki is a dissociation constant, usually derived from enzyme kinetics or from competition with a known ligand. As usually defined, the pKi is the Ki on a negative log10 scale, so that one unit is a factor of ten. A high value points to a small Ki. With `NC(=O)c1cc(-c2ccnc(N)n2)[nH]c1-c1ccc(Cl)cc1Cl`, the Ki in assay [1] was 50.1 nM (active); in assay [2] it was > 5010 nM (inactive); in assay [3] it was > 7940 nM (inactive); in [4], > 1260 nM (inactive); in assay [5] it was > 1580 nM (inactive); in assay [6], 1000 nM (active). For the same molecule, the inhibition constant Ki was 25.1 nM (active) in [7]; 20 nM (active) in assay [8]; > 10000 nM (inactive) in [9]; > 631 nM (inactive) in [10]; 79.4 nM (active) in assay [11]; 1580 nM (active) in [12]. In addition, the Ki in assay [13] was > 2510 nM (inactive); in assay [14], > 1580 nM (inactive); in assay [15], > 1580 nM (inactive); in assay [16] it was > 10000 nM (inactive); in assay [17] it was > 2000 nM (inactive); in [18] it was > 3980 nM (inactive). In assay [19], the inhibition constant Ki is 6310 nM (active). Moreover, the pKi in assay [1] came out at 7.3; in assay [6], 6; in [7], 7.6; in [8] it was 7.7; in assay [11], 7.1; in assay [12] it was 5.8. In [19], this molecule had a negative-log Ki (pKi) of 5.2.

For `NC(COc1cncc(-c2ccc3c(c2)C(=Cc2ccco2)C(=O)N3)c1)Cc1c[nH]c2ccccc12` (stereo not given), the inhibition constant Ki in [2] is 12.6 nM (active); in [3] it was 501 nM (active); in assay [4] it was > 1260 nM (inactive); in assay [5], > 1580 nM (inactive); in [6] it was 50.1 nM (active); in assay [7], 1260 nM (active). The inhibitory constant (Ki) was 5.01 nM (active) in [8]; > 10000 nM (inactive) in assay [9]; > 631 nM (inactive) in assay [10]; 316 nM (active) in assay [11]; 39.8 nM (active) in assay [12]; > 2510 nM (inactive) in assay [13]. For the same molecule, the Ki in assay [14] is 398 nM (active); in assay [15], 1 nM (active); in [16] it was 2000 nM (active); in [17] it was > 2000 nM (inactive); in assay [18] it was 316 nM (active); in assay [19] it was 158 nM (active).

Consider `Cc1ccc(-n2nc(C(C)(C)C)cc2NC(=O)Nc2ccc(OCCN3CCOCC3)c3ccccc23)cc1` [DORAMAPIMOD], for which the Ki in assay [1] is > 3980 nM (inactive).

The values above are taken from ChEMBL document CHEMBL1201862, “PubChem BioAssay data set” (2004).
